Results on ten compounds are retold here after publication PMC7598997, “Synthesis and evaluation of anticancer activities of 2- or 4-substituted 3-(N-benzyltriazolylmethyl)-13α-oestrone derivatives” (Journal of Enzyme Inhibition and Medicinal Chemistry, 2020).

Data set [1] has as its system MCF-7 cells. Nature of the data set: MTT antiproliferative assay, MCF-7. The settings on record: for IC50: read-out: calculated IC50; for inhibition at 10 µM / inhibition at 30 µM: read-out: Inhibition (%) ± SEM. In kind it is cell-based, human. The method, then:
(§1) The antiproliferative properties of the newly synthesised triazoles (11a,b–15a,b) were determined on a panel of human adherent cancer cell lines of gynaecological origin. MCF-7 and MDA-MB-231 were isolated from breast cancers differing in biochemical background, while A2780 cells were isolated from ovarian cancer. The cancer selectivity of compound 12a was tested on the non-cancerous mouse embryo fibroblast cell line NIH/3T3. All cell lines were purchased from European Collection of Cell Cultures (ECCAC, Salisbury, UK). Cells were cultivated in minimal essential medium supplemented with 10% foetal bovine serum, 1% non-essential amino acids and an antibiotic–antimycotic mixture. All media and supplements were obtained from Lonza Group Ltd., Basel, Switzerland. Near-confluent cancer cells were seeded onto a 96-well microplate (5000 cells/well) and, after overnight standing, 200 µL new medium, containing the tested compounds at 10 and 30 µM, was added. After incubation for 72 h at 37 °C in humidified air containing 5% CO2, the living cells were assayed by the addition of 20 µL of 5 mg/ml 3-(4,5-dimethylthiazol-2-yl)-2,5-diphenyltetrazolium bromide (MTT) solution. MTT was converted by intact mitochondrial reductase and precipitated as purple crystals during a 4-h contact period. The medium was next removed and the precipitated formazan crystals were dissolved in 100 µL of DMSO during a 60-min period of shaking at 37 ^оC.
(§2) Finally, the reduced MTT was assayed at 545 nm, using a microplate reader utilising wells with untreated cells serving as control. […] All in vitro experiments were carried out on two microplates with at least five parallel wells. Stock solutions of the tested substances (10 mM) were prepared in DMSO. […] Cisplatin (Ebewe Pharma GmbH, Unterach, Austria) was used as positive control.

The subject of data set [2] is A2780 cells. Nature of the data set: MTT antiproliferative assay, A2780. In kind it is cell-based, human. To be noted: for IC50: read-out: calculated IC50; for inhibition at 10 µM / inhibition at 30 µM: read-out: Inhibition (%) ± SEM. Here is the method:
as §1, §2

Data set [3] concerns MDA-MB-231 cells. As to the kind of experiment: MTT antiproliferative assay, MDA-MB-231. In kind it is cell-based, human. The settings on record: for IC50: read-out: calculated IC50; for inhibition at 10 µM / inhibition at 30 µM: read-out: Inhibition (%) ± SEM. Here is the method:
as §1, §2

Setting [4] is: Homo sapiens, MCF7, MCF-7, 10 µM, 72 h, MTT.
[5] abbreviates: Homo sapiens, MCF7, MCF-7, 30 µM, 72 h, MTT.
Where [6] appears, read: Homo sapiens, A2780, 10 µM, 72 h, MTT.
[7] abbreviates: Homo sapiens, A2780, 30 µM, 72 h, MTT.
Setting [8] is: Homo sapiens, MDA-MB-231, 10 µM, 72 h, MTT.
[9] abbreviates: Homo sapiens, MDA-MB-231, 30 µM, 72 h, MTT.

Structures are written as SMILES. Like-named read-outs stand apart in the source and are kept apart here.

For `N.N.[Cl][Pt][Cl]` [Cisplatin, reference compound], the “Inhibition (%) ± SEM” value in data set [1] (MCF-7, 10 µM, 72 h, MTT) is 53.03 ± 2.29%; in data set [1] (MCF-7, 30 µM, 72 h, MTT), 86.90 ± 1.24%; in data set [2] (A2780, 10 µM, 72 h, MTT) it was 83.57 ± 1.21%; in data set [2] (A2780, 30 µM, 72 h, MTT), 95.02 ± 0.28%; in data set [3] (MDA-MB-231, 10 µM, 72 h, MTT) it was 67.51 ± 1.01%; in data set [3] (MDA-MB-231, 30 µM, 72 h, MTT), 87.75 ± 1.10%. In addition, the IC50 in data set [1] (MCF-7, 72 h, MTT) is 5.78 µM; in data set [2] (A2780, 72 h, MTT) it was 1.3 µM; in data set [3] (MDA-MB-231, 72 h, MTT), 3.7 µM.
In the case of `C[C@@]12CC[C@@H]3c4cc(Br)c(OCc5cn(Cc6ccccc6)nn5)cc4CC[C@H]3[C@@H]1CCC2=O` [Compound 11a, 3-[{1-benzyl-1H-1,2,3-triazol-4-yl}methoxy]-2-bromo-13α-estra-1,3,5(10)-trien-17-one], the inhibition at 10 µM was 29.1 ± 1.42% in data set [1] (setting [4]), 44.87 ± 0.09% in data set [2] (setting [6]) and 47.5 ± 1.21% in data set [3] (setting [8]). Moreover, the inhibition at 30 µM in data set [1] (setting [5]) came to 36.5 ± 1.22%; in data set [2] (setting [7]), 52 ± 0.8%; in data set [3] (setting [9]) it was 38.2 ± 2.78%. Besides, the IC50 in data set [2] (Homo sapiens, A2780, 72 h, MTT) is 21.5 µM.
`CC(C)(C)c1ccc(Cn2cc(COc3cc4c(cc3Br)[C@H]3CC[C@@]5(C)C(=O)CC[C@H]5[C@@H]3CC4)nn2)cc1` [Compound 11b, 2-bromo-3-[{1–(4-tert-butylbenzyl)-1H-1,2,3-triazol-4-yl}methoxy]-13α-estra-1,3,5(10)-trien-17-one]: the values for the inhibition at 10 µM in data set [1] (setting [4]), in data set [2] (setting [6]) and in data set [3] (setting [8]) were under 20%, 30.2 ± 2.35% and 24.4 ± 2.2%, respectively. Besides, the inhibition at 30 µM was under 20% in data set [1] (setting [5]), 33.9 ± 2.7% in data set [2] (setting [7]) and 23.9 ± 1.07% in data set [3] (setting [9]).
As for `CC(C)(C)c1ccc(Cn2cc(COc3ccc4c(c3Br)CC[C@@H]3[C@@H]4CC[C@@]4(C)C(=O)CC[C@@H]34)nn2)cc1` [Compound 12b, 4-bromo-3-[{1–(4-tert-butylbenzyl)-1H-1,2,3-triazol-4-yl}methoxy]-13α-estra-1,3,5(10)-trien-17-one], the inhibition at 10 µM is 23.5 ± 1.03% in data set [1] (setting [4]), 46.9 ± 1.75% in data set [2] (setting [6]) and under 20% in data set [3] (setting [8]). The inhibition at 30 µM was 29.2 ± 2.94% in data set [1] (setting [5]), 54.7 ± 0.7% in data set [2] (setting [7]) and under 20% in data set [3] (setting [9]). Also, the IC50 in data set [2] (Homo sapiens, A2780, 72 h, MTT) was 18.3 µM.
Compound `CCOP(=O)(OCC)c1cc2c(cc1OCc1cn(Cc3ccccc3)nn1)CC[C@@H]1[C@@H]2CC[C@@]2(C)C(=O)CC[C@@H]12` [Compound 13a, (3-[{1-benzyl-1H-1,2,3-triazol-4-yl}methoxy]-13α-estra-1,3,5(10)-trien-17-on-2-yl)-diethylphosphonate] registered a melting point of 75 to 80 °C. In data set [1] (Homo sapiens, MCF7, 72 h), the inhibition at 10 µM was under 20% and the inhibition at 30 µM amounted to 43.5 ± 2.63%. For the same compound, in data set [2] (Homo sapiens, A2780, 72 h), the inhibition at 10 µM was determined as 29.5 ± 1.86%, the inhibition at 30 µM came out at 90.85 ± 0.4% and the IC50 was 13.5 µM. In addition, in data set [3] (Homo sapiens, MDA-MB-231, 72 h), the inhibition at 10 µM was under 20% and the inhibition at 30 µM came to 36 ± 3.17%.
As to `CCOP(=O)(OCC)c1cc2c(cc1OCc1cn(Cc3ccc(C(C)(C)C)cc3)nn1)CC[C@@H]1[C@@H]2CC[C@@]2(C)C(=O)CC[C@@H]12` [Compound 13b, (3-[{1–(4-tert-butylbenzyl)-1H-1,2,3-triazol-4-yl}methoxy]-13α-estra-1,3,5(10)-trien-17-on-2-yl)-diethylphosphonate], the inhibition at 10 µM in data set [1] (Homo sapiens, MCF7, 72 h) is 74 ± 1.88%; in data set [2] (Homo sapiens, A2780, 72 h), 95.61 ± 0.59%; in data set [3] (Homo sapiens, MDA-MB-231, 72 h) it was 57 ± 2.58%. The inhibition at 30 µM worked out at 95.52 ± 0.23% in data set [1] (Homo sapiens, MCF7, 72 h); 99.73 ± 0.21% in data set [2] (Homo sapiens, A2780, 72 h); 98.93 ± 0.2% in data set [3] (Homo sapiens, MDA-MB-231, 72 h). The IC50 in data set [1] (Homo sapiens, MCF7, 72 h) is 6.59 µM; in data set [2] (Homo sapiens, A2780, 72 h), 2.95 µM; in data set [3] (Homo sapiens, MDA-MB-231, 72 h) it was 9.51 µM.
Consider `C[C@@]12CC[C@@H]3c4cc(P(=O)(c5ccccc5)c5ccccc5)c(OCc5cn(Cc6ccccc6)nn5)cc4CC[C@H]3[C@@H]1CCC2=O` [Compound 14a, (3-[{1-benzyl-1H-1,2,3-triazol-4-yl}methoxy]-13α-estra-1,3,5(10)-trien-17-on-2-yl)diphenylphosphine oxide], for which the melting point was 117 to 120 °C. Further, in data set [1] (Homo sapiens, MCF7, 72 h), the inhibition at 10 µM turned out to be 66.9 ± 1.46%, the inhibition at 30 µM was determined as 92.5 ± 1.08% and the IC50 was 8.38 µM. Further, in data set [2] (Homo sapiens, A2780, 72 h), the inhibition at 10 µM was determined as 96 ± 1.28%, the inhibition at 30 µM worked out at 98.06 ± 0.89% and the IC50 is 4.87 µM. For the same compound, in data set [3] (Homo sapiens, MDA-MB-231, 72 h), the inhibition at 10 µM stood at 82 ± 2.49%, the inhibition at 30 µM is 98.52 ± 0.1% and the IC50 was 7.13 µM.
Regarding `CC(C)(C)c1ccc(Cn2cc(COc3cc4c(cc3P(=O)(c3ccccc3)c3ccccc3)[C@H]3CC[C@@]5(C)C(=O)CC[C@H]5[C@@H]3CC4)nn2)cc1` [Compound 14b, (3-[{1–(4-tert-butylbenzyl)-1H-1,2,3-triazol-4-yl}methoxy]-13α-estra-1,3,5(10)-trien-17-on-2-yl)diphenylphosphine oxide], the melting point lay within 205 to 208 °C. In addition, in data set [1] (Homo sapiens, MCF7, 72 h), the inhibition at 10 µM came out at 77.87 ± 0.66%, the inhibition at 30 µM stood at 90.69 ± 0.18% and the IC50 is 7.16 µM. Moreover, in data set [2] (Homo sapiens, A2780, 72 h), the inhibition at 10 µM came out at 85.52 ± 0.64%, the inhibition at 30 µM worked out at 95.82 ± 0.12% and the IC50 is 5.07 µM. Besides, in data set [3] (Homo sapiens, MDA-MB-231, 72 h), the inhibition at 10 µM amounted to 46.6 ± 1.21%, the inhibition at 30 µM worked out at 71.3 ± 1.23% and the IC50 is 13.6 µM.
As to `CCOP(=O)(OCC)c1c(OCc2cn(Cc3ccccc3)nn2)ccc2c1CC[C@@H]1[C@@H]2CC[C@@]2(C)C(=O)CC[C@@H]12` [Compound 15a, (3-[{1-benzyl-1H-1,2,3-triazol-4-yl}methoxy]-13α-estra-1,3,5(10)-trien-17-on-4-yl)-diethylphosphonate], the melting point is 43 to 45 °C. In addition, in data set [1] (Homo sapiens, MCF7, 72 h), the inhibition at 10 µM came out at 42.4 ± 2.94%, the inhibition at 30 µM stood at 91 ± 1.49% and the IC50 was 11.4 µM. For the same compound, in data set [2] (Homo sapiens, A2780, 72 h), the inhibition at 10 µM was determined as 79.9 ± 1.08%, the inhibition at 30 µM stood at 99.5 ± 0.03% and the IC50 was 5.91 µM. Further, in data set [3] (Homo sapiens, MDA-MB-231, 72 h), the inhibition at 10 µM was 25.7 ± 1.76%, the inhibition at 30 µM came to 96.87 ± 0.28% and the IC50 was 13.2 µM.
`CCOP(=O)(OCC)c1c(OCc2cn(Cc3ccc(C(C)(C)C)cc3)nn2)ccc2c1CC[C@@H]1[C@@H]2CC[C@@]2(C)C(=O)CC[C@@H]12` [Compound 15b, (3-[{1–(4-tert-butylbenzyl)-1H-1,2,3-triazol-4-yl}methoxy]-13α-estra-1,3,5(10)-trien-17-on-4-yl)-diethylphosphonate] came in with a melting point of 54 to 59 °C. Also, in data set [1] (Homo sapiens, MCF7, 72 h), the inhibition at 10 µM was determined as 30.1 ± 1.53% and the inhibition at 30 µM worked out at 77.5 ± 1.56%. For the same compound, in data set [2] (Homo sapiens, A2780, 72 h), the inhibition at 10 µM is 46.2 ± 1.27%, the inhibition at 30 µM came to 92.05 ± 0.86% and the IC50 is 9.96 µM. In data set [3] (Homo sapiens, MDA-MB-231, 72 h), the inhibition at 10 µM is under 20% and the inhibition at 30 µM came to 34.8 ± 2.2%.
